Test results taken from patent US20210161997A1, “TREATING DISEASES VIA TARGETED MODULATION OF GENE SIGNALING NETWORKS” (Camp4 Therapeutics Corporation, priority 2018, published 2021).

Legend:
Format in all cases: cell-based
LECT2 = experiment: RNA-seq of LECT2 expression in compound-treated primary human hepatocytes
Experimental: (§1) Human hepatocytes were obtained from two donors from Massachusetts General Hospital, namely MGH54 and MGH63, and one donor from Lonza, namely HUM4111B. Cryopreserved hepatocytes were cultured in plating media for 16 hours, transferred to maintenance media for 4 hours. Cultured on serum-free media for 2 hours, then a compound was added. The hepatocytes were maintained on the serum-free media for 16 hours prior to gene expression analysis. Primary human hepatocytes were stored in the vapor phase of a liquid nitrogen freezer (about −130° C.).
(§2) Human hepatocytes cultured as described above were plated in 24-well format, adding 375,000 cells per well in a volume of 500 ul plating medium. Four hours before treatment, cells were washed with PBS and the medium was changed to either: fresh maintenance medium (complete) or modified maintenance medium.
(§3) Compound stocks were prepared at 1000× final concentration and added in a 2-step dilution to the medium to reduce risk of a compound precipitating out of solution when added to the cells, and to ensure reasonable pipetting volumes. One at a time, each compound was first diluted 10-fold in warm (about 37° C.) modified maintenance medium (initial dilution=ID), mixed by vortexing, and the ID was diluted 100-fold into the cell culture (e.g. 5.1 ul into 1 well of a 24-well plate containing 0.5 mL medium). The plate was mixed by carefully swirling and after all wells were treated and returned to the incubator overnight. If desired, separate plates/wells were treated with vehicle-only controls and/or positive controls. If using multi-well plates, controls were included on each plate. After about 18 hours, cells were harvested for further analysis, e.g., ChIP-seq, RNA-seq, ATAC-seq, etc.
(§4) This protocol is a modified version of the following protocols: MagMAX mirVana Total RNA Isolation Kit User Guide (Applied Biosystems #MAN0011131 Rev B.0), NEBNext Poly(A) mRNA Magnetic Isolation Module (E7490), and NEBNext Ultra Directional RNA Library Prep Kit for Illumina (E7420) (New England Biosystems #E74901).
(§5) The MagMAX mirVana kit instructions (the section titled “Isolate RNA from cells” on pages 14-17) were used for isolation of total RNA from cells in culture. Two hundred μl of Lysis Binding Mix was used per well of the multiwell plate containing adherent cells (usually a 24-well plate).
(§6) For mRNA isolation and library prep, the NEBNext Poly(A) mRNA Magnetic Isolation Module and Directional Prep kit was used. RNA isolated from cells above was quantified, and prepared in […] of each sample in 50 μl of nuclease-free water. This protocol may be run in microfuge tubes or in a 96-well plate.
(§7) Standard QC were applied (read integrity, mapping statistics, library complexity, fragment bias) to remove unsatisfactory samples. […] Log 2 fold change and significance values were computed using PME count data (with replicates explicitly modeled versus pan-experiment controls), median ratio normalized, using maximum likelihood estimation rather than maximum a posteriori, and disabling the use of Cook's distance cutoff when determining acceptable adjusted p-values. […] RNA-seq signals were also normalized by read depth and visualized using the UCSC browser.
(§8) To identify small molecules that modulate target gene expression, primary human hepatocytes were prepared as a monoculture, and at least one small molecule compound was applied to the cells.
(§9) RNA-seq was performed to determine the effects of the compounds on the expression of the target genes in hepatocytes. Fold change was calculated by dividing the level of expression in the cell system that had been perturbed by the level of expression in an unperturbed system. Changes in expression having a p-value ≤0.05 were considered significant.
(§10) Significance was defined as an FPKM ≥1, a log 2(fold change) ≥0.5, and a q-value of ≤0.05 for all targets except for CPOX.

SERPINC1 mRNA [1] = experiment: Quantitative PCR of SERPINC1 mRNA in primary human hepatocytes (Lonza Hu4282) treated with compounds; conditions: quantitative PCR; for SERPINC1 mRNA, Lonza Hu4282, 1 uM / SERPINC1 mRNA, Lonza Hu4282, 10 uM: primary human hepatocytes Lonza Hu4282
SERPINC1 mRNA [2] = experiment: Quantitative PCR of SERPINC1 mRNA in mouse hepatocytes treated with compounds; conditions: for SERPINC1 mRNA, Mouse Heps, 1 uM: compound 1 uM; for SERPINC1 mRNA, Mouse Heps, 10 uM: compound 10 uM
Experimental: Samples were amplified using Taqman probes from ThermoFisher.
In some examples, RQ Min and RQ Max values are also reported. RQ Min and RQ Max are the minimum and maximum relative levels of gene expression in the test samples, respectively. They were calculated using the confidence level set in the analysis settings and the confidence level was set to one standard deviation (SD). These values were calculated using standard deviation as follows: […].
Compounds were tested in hepatocytes for upregulation of SERPINC1 mRNA for identification of potential treatments of SERPINC1/AT III deficiency.

NOTCH2 = experiment: RNA-seq of NOTCH2 expression in compound-treated primary human hepatocytes; conditions: for NOTCH2 Fold Change (Log2): primary human hepatocytes
Experimental: (§11) Human hepatocytes were obtained from two donors from Massachusetts General Hospital, namely MGH54 and MGH63, and one donor from Lonza, namely HUM4111B. Cryopreserved hepatocytes were cultured in plating media for 16 hours, transferred to maintenance media for 4 hours. Cultured on serum-free media for 2 hours, then a compound was added. The hepatocytes were maintained on the serum-free media for 16 hours prior to gene expression analysis. Primary human hepatocytes were stored in the vapor phase of a liquid nitrogen freezer (about -130° C.). Human hepatocytes cultured as described above were plated in 24-well format, adding 375,000 cells per well in a volume of 500 ul plating medium. Four hours before treatment, cells were washed with PBS and the medium was changed to either: fresh maintenance medium (complete) or modified maintenance medium. Compound stocks were prepared at 1000× final concentration and added in a 2-step dilution to the medium to reduce risk of a compound precipitating out of solution when added to the cells, and to ensure reasonable pipetting volumes. […] The plate was mixed by carefully swirling and after all wells were treated and returned to the incubator overnight. If desired, separate plates/wells were treated with vehicle-only controls and/or positive controls. If using multi-well plates, controls were included on each plate. After about 18 hours, cells were harvested for further analysis, e.g., ChIP-seq, RNA-seq, ATAC-seq, etc. This protocol is a modified version of the following protocols: MagMAX mirVana Total RNA Isolation Kit User Guide (Applied Biosystems #MAN0011131 Rev B.0), NEBNext Poly(A) mRNA Magnetic Isolation Module ([…]), and NEBNext Ultra Directional RNA Library Prep Kit for Illumina ([…]) (New England Biosystems #E74901). […] Two hundred μl of Lysis Binding Mix was used per well of the multiwell plate containing adherent cells (usually a 24-well plate). For mRNA isolation and library prep, the NEBNext Poly(A) mRNA Magnetic Isolation Module and Directional Prep kit was used. RNA isolated from cells above was quantified, and prepared in […] of each sample in 50 μl of nuclease-free water. This protocol may be run in microfuge tubes or in a 96-well plate. […] Genomic alignments were converted to transcriptome alignments based on reference transcript annotations from the Human GENCODE Gene Set release 24 (Harrow et al., Genome Res. […] Standard QC were applied (read integrity, mapping statistics, library complexity, fragment bias) to remove unsatisfactory samples. Differential gene expression was computed using the negative binomial model implemented by DESeq2 version 1.16.1 (Love et al., Genome Biol. (2014) 15(12):550). […] RNA-seq signals were also normalized by read depth and visualized using the UCSC browser. To identify small molecules that modulate target gene expression, primary human hepatocytes were prepared as a monoculture, and at least one small molecule compound was applied to the cells. RNA-seq was performed to determine the effects of the compounds on the expression of the target genes in hepatocytes. Fold change was calculated by dividing the level of expression in the cell system that had been perturbed by the level of expression in an unperturbed system.

JAG1 = experiment: RNA-seq of JAG1 expression in compound-treated primary human hepatocytes; conditions: for JAG1 Fold Change (Log2): primary human hepatocytes; for Significant modulation of JAG1 (in words): summary of Table 6
Experimental: as §11

ANGPTL3 = experiment: RNA-seq of ANGPTL3 expression in compound-treated primary human hepatocytes; conditions: additional compounds (Table 13), linear fold change
How it was run: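 Cryopreserved primary human hepatocytes from three donors, plated at 375,000 cells/well, switched to complete or modified maintenance medium, then dosed with compound (stocks at 1000× final) for about 18 h. Poly(A) mRNA was sequenced directionally, mapped to GRCh38 with STAR, and gene-level abundance (counts, FPKM) estimated with RSEM against GENCODE 24.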

UGT1A1 = experiment: RNA-seq of UGT1A1 expression in compound-treated primary human hepatocytes
Experimental: as §1, §2, §3, §4, §5, §6, §7, §8, §9, §10

COc1cc2ncnc(Nc3ccc(Oc4ccccc4)cc3C)c2cc1OC.Cl [APS-2-79]
LECT2 Fold Change (Log2) (LECT2): −0.68 Log2

O=C(Nc1c[nH]nc1-c1nc2ccc(CN3CCOCC3)cc2[nH]1)NC1CC1 [AT9283]
SERPINC1 mRNA, Lonza Hu4282, 1 uM (SERPINC1 mRNA [1]; compound 1 uM): 0.91
SERPINC1 mRNA, Lonza Hu4282, 10 uM (SERPINC1 mRNA [1]; compound 10 uM): 2.2
SERPINC1 mRNA, Mouse Heps, 1 uM (SERPINC1 mRNA [2]): 1.11
SERPINC1 mRNA, Mouse Heps, 10 uM (SERPINC1 mRNA [2]): 1.81

Cc1cc(-c2nc(-c3ccc(OC(F)(F)F)cc3)no2)nn1Cc1ccnc(N2CCN(C3CC3)CC2)c1 [BAY 87-2243]
NOTCH2 Fold Change (Log2) (NOTCH2): 0 Log2
JAG1 Fold Change (Log2) (JAG1): 0.61 Log2
Significant modulation of JAG1 (in words) (JAG1): significantly modulate only JAG1

CCNC(=O)Nc1ccc(-c2nc(N3CCOC[C@@H]3C)c3c(n2)C(C)(C)S(=O)(=O)C3)cc1 [CZ415]
SERPINC1 mRNA, H8290, 1 uM (SERPINC1 mRNA [1]; hepatocytes H8290, compound 1 uM): 1.4
SERPINC1 mRNA, H8290, 10 uM (SERPINC1 mRNA [1]; hepatocytes H8290, compound 10 uM): 2.3
SERPINC1 mRNA, Lonza Hu4282, 1 uM (SERPINC1 mRNA [1]; compound 1 uM): 1.25
SERPINC1 mRNA, Lonza Hu4282, 10 uM (SERPINC1 mRNA [1]; compound 10 uM): 1.42
SERPINC1 mRNA, Mouse Heps, 1 uM (SERPINC1 mRNA [2]): 2.2
SERPINC1 mRNA, Mouse Heps, 10 uM (SERPINC1 mRNA [2]): 2.5

CCN(CC)CCN(Cc1ccc(-c2ccc(C(F)(F)F)cc2)cc1)C(=O)Cn1c(SCc2ccc(F)cc2)nc(=O)c2c1CCC2 [Darapladib]
LECT2 Fold Change (Log2) (LECT2): −0.55 Log2
ANGPTL3-LINEAR FOLD CHANGE (ANGPTL3): 0.4569

Cn1cc(C2=C(c3cn(C4CCN(Cc5ccccn5)CC4)c4ccccc34)C(=O)NC2=O)c2ccccc21 [Enzastaurin]
NOTCH2 Fold Change (Log2) (NOTCH2): 0 Log2
JAG1 Fold Change (Log2) (JAG1): 1.03 Log2
Significant modulation of JAG1 (in words) (JAG1): significantly modulate only JAG1
ANGPTL3-LINEAR FOLD CHANGE (ANGPTL3): 0.2176

c1cc(-c2cnn3cc(-c4ccc(N5CCNCC5)cc4)cnc23)c2cccnc2c1 [LDN-212854]
NOTCH2 Fold Change (Log2) (NOTCH2): 0 Log2
JAG1 Fold Change (Log2) (JAG1): 1.47 Log2
Significant modulation of JAG1 (in words) (JAG1): significantly modulate only JAG1

Cc1ccc(C(=O)Nc2ccc(Oc3cc4cnn(C)c4cc3-c3cn[nH]c3)c(F)c2)c(=O)n1-c1ccc(F)cc1 [Merestinib]
NOTCH2 Fold Change (Log2) (NOTCH2): 0.62 Log2
Significant modulation of NOTCH2 (in words) (NOTCH2; summary of Table 6): significantly modulate both JAG1 and NOTCH2
JAG1 Fold Change (Log2) (JAG1): 0.76 Log2
Significant modulation of JAG1 (in words) (JAG1): significantly modulate both JAG1 and NOTCH2
UGT1A1 Fold Change (Log2) (UGT1A1): 0.76 Log2
